# Results from patent US20230019491A1, “PYRIMIDINE TBK/IKKe INHIBITOR COMPOUNDS AND USES THEREOF” (Merck Patent GmbH, priority 2017, published 2023).
# Tests used:
# IKKε = target: T1, IKKε (Homo sapiens, UniProt Q14164); test: IKKε biochemical assay; settings: 10 point 1:4 dose response, 30 uM top concentration, 90 min at 25° C., LabChip EZ Reader II; read-out: IKKε_IC50
# T1 sequence (Q14164 1-716): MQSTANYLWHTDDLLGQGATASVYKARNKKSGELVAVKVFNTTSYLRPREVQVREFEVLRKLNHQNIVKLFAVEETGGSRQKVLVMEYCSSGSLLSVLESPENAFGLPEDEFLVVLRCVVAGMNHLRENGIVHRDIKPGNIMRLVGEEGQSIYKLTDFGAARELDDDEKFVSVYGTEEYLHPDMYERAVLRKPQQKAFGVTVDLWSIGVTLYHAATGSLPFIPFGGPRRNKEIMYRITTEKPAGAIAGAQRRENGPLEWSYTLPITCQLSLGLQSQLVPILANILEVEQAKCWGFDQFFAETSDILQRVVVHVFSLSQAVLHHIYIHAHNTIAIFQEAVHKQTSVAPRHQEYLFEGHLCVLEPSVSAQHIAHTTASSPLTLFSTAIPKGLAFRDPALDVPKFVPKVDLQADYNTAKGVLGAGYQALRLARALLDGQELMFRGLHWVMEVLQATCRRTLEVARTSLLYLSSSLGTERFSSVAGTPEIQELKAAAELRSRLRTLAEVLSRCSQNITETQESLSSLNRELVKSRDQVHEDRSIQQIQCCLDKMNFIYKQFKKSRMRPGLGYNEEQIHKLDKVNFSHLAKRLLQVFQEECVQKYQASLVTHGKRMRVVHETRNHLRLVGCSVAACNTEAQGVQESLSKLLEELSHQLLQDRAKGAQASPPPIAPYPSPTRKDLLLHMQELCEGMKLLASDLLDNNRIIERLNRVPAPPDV
# Outline: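 Compounds in 1% DMSO final were incubated with IKKε enzyme and substrate at 25° C. for 90 min, then stopped. Substrate and product peaks were resolved by LabChip EZ Reader II mobility-shift read-out. Staurosporine at 10 uM final served as the full-inhibition control.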
# TBK1 = target: T2, TBK1 (Homo sapiens, UniProt Q9UHD2); test: TBK biochemical assay; settings: 10 point 1:4 dose response, 30 uM top concentration, 90 min at 25° C., LabChip EZ Reader II; read-out: TBK1_IC50
# T2 sequence (Q9UHD2 1-729): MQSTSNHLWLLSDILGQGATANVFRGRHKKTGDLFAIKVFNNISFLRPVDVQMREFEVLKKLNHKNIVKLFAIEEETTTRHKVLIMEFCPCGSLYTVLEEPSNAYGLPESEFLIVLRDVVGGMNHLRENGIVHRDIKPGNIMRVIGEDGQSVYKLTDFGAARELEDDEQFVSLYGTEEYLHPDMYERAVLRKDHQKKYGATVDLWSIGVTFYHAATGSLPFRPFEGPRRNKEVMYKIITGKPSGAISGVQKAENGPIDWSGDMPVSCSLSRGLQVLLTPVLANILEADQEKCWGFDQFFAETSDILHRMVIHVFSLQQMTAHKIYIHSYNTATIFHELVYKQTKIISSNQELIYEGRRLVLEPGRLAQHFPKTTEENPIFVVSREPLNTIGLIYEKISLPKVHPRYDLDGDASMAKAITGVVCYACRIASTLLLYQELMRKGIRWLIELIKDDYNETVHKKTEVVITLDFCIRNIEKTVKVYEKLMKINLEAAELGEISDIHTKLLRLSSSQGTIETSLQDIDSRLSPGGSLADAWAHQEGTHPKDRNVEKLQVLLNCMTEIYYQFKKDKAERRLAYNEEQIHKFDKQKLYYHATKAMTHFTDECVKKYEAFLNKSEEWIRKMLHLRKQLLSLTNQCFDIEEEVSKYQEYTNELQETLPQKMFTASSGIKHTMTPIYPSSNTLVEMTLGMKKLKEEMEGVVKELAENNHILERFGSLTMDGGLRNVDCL
# Outline: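 Substrate and product were separated and quantified by microfluidic mobility-shift read (LabChip). 10 uM staurosporine served as the full-inhibition control, and the reference compound was tested from 1 uM final.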
Structure (SMILES),IC50 (IKKε) [nM],IC50 (TBK1) [nM]
"COc1cc(Nc2nccc(-c3ccc(OC4CCN(C(=O)[C@H](C)O)CC4(F)F)c(C#N)c3)n2)ccc1C1CCN(C2COC2)CC1 (stereo partly drawn) [Example 311, 2-([3,3-difluoro-1-[(2S)-2-hydroxypropanoyl]piperidin-4-yl]oxy)-5-[2-([3-methoxy-4-[1-(oxetan-3-yl)piperidin-4-yl]phenyl]amino)pyrimidin-4-yl]benzonitrile]",< 100,< 100
"COc1nc(Nc2nccc(-c3ccc(N4CC5(CCNCC5)C4)c(C#N)c3)n2)ccc1N1CCN(C2COC2)CC1 [Example 312, 2-(2,7-Diaza-spiro[3.5]non-2-yl)-5-{2-[6-methoxy-5-(4-oxetan-3-yl-piperazin-1-yl)-pyridin-2-ylamino]-pyrimidin-4-yl}-benzonitrile]",100 to 1000,100 to 1000
"COc1nc(Nc2nccc(-c3ccc(N4CCC5(CC4)CNC5)c(C#N)c3)n2)ccc1N1CCN(C2COC2)CC1 [Example 313, 2-(2,7-Diaza-spiro[3.5]non-7-yl)-5-{2-[6-methoxy-5-(4-oxetan-3-yl-piperazin-1-yl)-pyridin-2-ylamino]-pyrimidin-4-yl}-benzonitrile]",100 to 1000,< 100
"COc1nc(Nc2nccc(-c3ccc(N4CC5(CCN(C(=O)[C@H](C)O)CC5)C4)c(C#N)c3)n2)ccc1N1CCN(C2COC2)CC1 [Example 314, 2-[7-((S)-2-Hydroxy-propionyl)-2,7-diaza-spiro[3.5]non-2-yl]-5-{2-[6-methoxy-5-(4-oxetan-3-yl-piperazin-1-yl)-pyridin-2-ylamino]-pyrimidin-4-yl}-benzonitrile]",< 100,< 100
"COc1nc(Nc2nccc(-c3ccc(N4CC5(CCN(C(=O)[C@@H](O)CO)CC5)C4)c(C#N)c3)n2)ccc1N1CCN(C2COC2)CC1 [Example 315, 2-[7-((S)-2,3-Dihydroxy-propionyl)-2,7-diaza-spiro[3.5]non-2-yl]-5-{2-[6-methoxy-5-(4-oxetan-3-yl-piperazin-1-yl)-pyridin-2-ylamino]-pyrimidin-4-yl}-benzonitrile]",< 100,< 100
"COc1nc(Nc2nccc(-c3ccc(N4CCC5(CC4)CN(C(=O)[C@H](C)O)C5)c(C#N)c3)n2)ccc1N1CCN(C2COC2)CC1 [Example 316, 2-[2-((S)-2-Hydroxy-propionyl)-2,7-diaza-spiro[3.5]non-7-yl]-5-{2-[6-methoxy-5-(4-oxetan-3-yl-piperazin-1-yl)-pyridin-2-ylamino]-pyrimidin-4-yl}-benzonitrile]",< 100,< 100
"COc1cc(Nc2nccc(-c3ccc(OC4CCN(C(=O)[C@H](C)O)CC4)c(C#N)c3)n2)ncc1N1CCN(C2COC2)CC1 [Example 318, 2-([1-[(2S)-2-hydroxypropanoyl]piperidin-4-yl]oxy)-5-[2-([4-methoxy-5-[4-(oxetan-3-yl)piperazin-1-yl]pyridin-2-yl]amino)pyrimidin-4-yl]benzonitrile]",100 to 1000,100 to 1000
"COc1cc(Nc2nccc(-c3ccc(OC4CCN(C(=O)[C@@H](C)O)CC4)c(C#N)c3)n2)ncc1N1CCN(C2COC2)CC1 [Example 319, 2-([1-[(2R)-2-hydroxypropanoyl]piperidin-4-yl]oxy)-5-[2-([4-methoxy-5-[4-(oxetan-3-yl)piperazin-1-yl]pyridin-2-yl]amino)pyrimidin-4-yl]benzonitrile]",100 to 1000,1000 to 5000
"COc1cc(Nc2nccc(-c3ccc(OC4CCN(C(=O)[C@H](C)O)CC4)c(C#N)c3)n2)cnc1N1CCN(C2COC2)CC1 [Example 320, 2-([1-[(2S)-2-hydroxypropanoyl]piperidin-4-yl]oxy)-5-[2-([5-methoxy-6-[4-(oxetan-3-yl)piperazin-1-yl]pyridin-3-yl]amino)pyrimidin-4-yl]benzonitrile]",< 100,< 100
"COc1cc(Nc2nccc(-c3ccc(OC4CCN(C(=O)[C@@H](C)O)CC4)c(C#N)c3)n2)cnc1N1CCN(C2COC2)CC1 [Example 321, 2-([1-[(2R)-2-hydroxypropanoyl]piperidin-4-yl]oxy)-5-[2-([5-methoxy-6-[4-(oxetan-3-yl)piperazin-1-yl]pyridin-3-yl]amino)pyrimidin-4-yl]benzonitrile]",< 100,< 100
"COc1cc(Nc2nccc(-c3ccc(OC4CCN(C(=O)[C@H](C)O)CC4(F)F)c(C#N)c3)n2)ncc1N1CCN(C2COC2)CC1 (stereo partly drawn) [Example 322, 2-([33-difluoro-1-[(2S)-2-hydroxypropanoyl]piperidin-4-yl]oxy)-5-[2-([4-methoxy-5-[4-(oxetan-3-yl)piperazin-1-yl]pyridin-2-yl]amino)pyrimidin-4-yl]benzonitrile]",< 100,< 100
"COc1cc(Nc2nccc(-c3ccc(OC4CCN(C(=O)[C@H](C)O)CC4(F)F)c(C#N)c3)n2)cnc1N1CCN(C2COC2)CC1 (stereo partly drawn) [Example 323, 2-([3,3-difluoro-1-[(2S)-2-hydroxypropanoyl]piperidin-4-yl]oxy)-5-[2-([5-methoxy-6-[4-(oxetan-3-yl)piperazin-1-yl]pyridin-3-yl]amino)pyrimidin-4-yl]benzonitrile]",< 100,< 100
"COc1nc(Nc2nccc(-c3ccc(OC4CCN(C(=O)[C@H](C)O)CC4(F)F)c(C#N)c3)n2)ccc1C(=O)N(C)C (stereo partly drawn) [Example 324, 6-([4-[3-cyano-4-([3,3-difluoro-1-[(2S)-2-hydroxypropanoyl]piperidin-4-yl]oxy)phenyl]pyrimidin-2-yl]amino)-2-methoxy-N,N-dimethylpyridine-3-carboxamide]",< 100,< 100
"COc1nc(Nc2nccc(-c3ccc(OC4CCN(C(=O)[C@@H](C)O)CC4(F)F)c(C#N)c3)n2)ccc1C(=O)N(C)C (stereo partly drawn) [Example 325, 6-([4-[3-cyano-4-([3,3-difluoro-1-[(2R)-2-hydroxypropanoyl]piperidin-4-yl]oxy)phenyl]pyrimidin-2-yl]amino)-2-methoxy-N,N-dimethylpyridine-3-carboxamide]",< 100,< 100
"COc1cc(Nc2nccc(-c3ccc(OC4CCN(C(=O)CO)CC4(F)F)c(C#N)c3)n2)ccn1 (stereo not drawn) [Example 326, 2-[[3,3-difluoro-1-(2-hydroxyacetyl)piperidin-4-yl]oxy]-5-[2-[(2-methoxypyridin-4-yl)amino]pyrimidin-4-yl]benzonitrile]",< 100,< 100
"COc1nc(Nc2nccc(-c3ccc(OC4CCN(C(=O)C(C)O)CC4(F)F)c(C#N)c3)n2)ccc1C1CCN(C2COC2)CC1 (stereo not drawn) [Example 329, 2-[[33-difluoro-1-(2-hydroxypropanoyl)piperidin-4-yl]oxy]-5-[2-([6-methoxy-5-[1-(oxetan-3-yl)piperidin-4-yl]pyridin-2-yl]amino)pyrimidin-4-yl]benzonitrile]",< 100,< 100
"COc1nc(Nc2nccc(-c3ccc(OC4CCN(C(=O)[C@@H](C)O)CC4(F)F)c(C#N)c3)n2)ccc1C1CCN(C2COC2)CC1 (stereo partly drawn) [Example 330, 2-([3,3-difluoro-1-[(2R)-2-hydroxypropanoyl]piperidin-4-yl]oxy)-5-[2-([6-methoxy-5-[1-(oxetan-3-yl)piperidin-4-yl]pyridin-2-yl]amino)pyrimidin-4-yl]benzonitrile]",< 100,< 100
"COc1nc(Nc2nccc(-c3ccc(O[C@@H]4CCN(C(=O)[C@H](C)O)C[C@@H]4F)c(C#N)c3)n2)ccc1N1CCN(C2COC2)CC1 [Example 331, 2-[[(3S,4R)-3-fluoro-1-[(2S)-2-hydroxypropanoyl]piperidin-4-yl]oxy]-5-[2-([6-methoxy-5-[4-(oxetan-3-yl)piperazin-1-yl]pyridin-2-yl]amino)pyrimidin-4-yl]benzonitrile]",100 to 1000,< 100
